In this assay the target is T1, RXFP1 (Homo sapiens, UniProt Q9HBX9).
T1 construct: OVCAR5 cells expressing endogenous RXFP1; endogenous in cells; host or cells: OVCAR5 cells
T1 sequence (Q9HBX9 1-757): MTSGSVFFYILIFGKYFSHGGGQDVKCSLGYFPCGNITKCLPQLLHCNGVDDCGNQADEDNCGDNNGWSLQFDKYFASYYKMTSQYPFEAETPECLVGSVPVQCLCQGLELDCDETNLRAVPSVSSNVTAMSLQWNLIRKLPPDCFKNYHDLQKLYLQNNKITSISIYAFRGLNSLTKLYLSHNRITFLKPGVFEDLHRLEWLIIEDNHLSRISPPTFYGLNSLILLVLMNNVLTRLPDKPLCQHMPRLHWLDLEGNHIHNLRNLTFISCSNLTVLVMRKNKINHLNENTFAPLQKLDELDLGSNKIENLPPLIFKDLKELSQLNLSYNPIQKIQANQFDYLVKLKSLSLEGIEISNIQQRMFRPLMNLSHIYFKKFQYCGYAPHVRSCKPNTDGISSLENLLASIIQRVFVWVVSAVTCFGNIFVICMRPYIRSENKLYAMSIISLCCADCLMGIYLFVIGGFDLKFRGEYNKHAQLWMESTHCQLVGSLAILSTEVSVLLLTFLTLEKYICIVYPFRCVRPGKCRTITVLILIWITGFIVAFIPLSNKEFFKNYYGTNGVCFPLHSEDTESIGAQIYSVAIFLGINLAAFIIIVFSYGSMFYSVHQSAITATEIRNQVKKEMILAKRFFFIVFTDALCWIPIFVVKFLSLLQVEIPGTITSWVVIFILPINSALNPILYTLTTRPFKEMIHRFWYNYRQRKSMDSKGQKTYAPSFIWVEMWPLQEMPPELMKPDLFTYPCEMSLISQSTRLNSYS
The assay is described as follows: OVCAR5 cAMP assay (HTRF), RXFP1 agonist activity. The settings on record: for Emax: OVCAR-5, maximal cAMP relative to H2-relaxin maximum (100%), read-out: EMax, OVCAR 5 cells (cAMP); for EC50: OVCAR5 cells, cAMP HTRF, read-out: EC50 (nM), OVCAR 5 cells (cAMP). Format: cell-based. The method in brief: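 OVCAR5 cells (endogenous RXFP1) pretreated 40 min at 37° C with 1 mM IBMX, then exposed to peptides in serum-free medium for 30 min at 37° C. Lysate cAMP read by HTRF; EC50 from variable-slope sigmoidal fit; Emax as % of H2-relaxin maximal cAMP in same run.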
On the technique in general: Cyclic AMP is a second messenger, typically raised through Gs and lowered through Gi signalling.

*1 amine or outer side, *2 acyl side, *3 side chain or, on linkers, in order; H or OH if unused. Where a SMILES comes first, the peptide text is derived from it. Side-chain parts run from the residue outwards. [ ]: non-standard residue; d: D form. The star is where a group is joined. γGlu = O=C(O)[C@H](CCC(=O)[*:2])N[*:1]; 1Nal = N[C@@H](Cc1cccc2ccccc12)C(=O)O; Stearoyl = CCCCCCCCCCCCCCCCCC(=O)*; Nle = CCCC[C@H](N)C(=O)O; AEEA = NCCOCCOCC(=O)O; Aib = CC(C)(N)C(=O)O

Among the data in patent US10988523B2, “Modified lipidated Relaxin B chain peptides and their therapeutic use” (Sanofi, priority 2018, dated 2021) are Emax and EC50 values, retold here.

One may read the Emax as the maximal effect, on the per cent scale that the assay sets. Take `CCCCCCCCCCCCCCCCCC(=O)N[C@@H](CCC(=O)N[C@@H](CCC(=O)N[C@@H](CCC(=O)NCCOCCOCC(=O)NCCOCCOCC(=O)NCCOCCOCC(=O)NCCCC[C@H](NC(=O)[C@H](CCCCN)NC(=O)[C@H](CCCNC(=N)N)NC(=O)C(C)(C)NC(=O)[C@H](CO)NC(=O)[C@H](Cc1c[nH]c2ccccc12)NC(=O)[C@@H](NC(=O)[C@H](CO)NC(=O)[C@H](CCCC)NC(=O)CNC(=O)[C@H](CCC(=O)O)NC(=O)C(C)(C)NC(=O)C(C)(C)NC(=O)[C@@H](NC(=O)[C@H](CCCCNC(C)=O)NC(=O)[C@H](C)NC(=O)[C@H](CCCNC(=N)N)NC(=O)[C@@H](NC(=O)[C@H](CCCCN)NC(=O)[C@H](CCC(=O)O)NC(=O)[C@H](CCCNC(=N)N)NC(=O)CNC(=O)[C@H](CCC(=O)O)NC(=O)[C@H](CC(C)C)NC(C)=O)C(C)C)[C@@H](C)CC)[C@@H](C)O)C(N)=O)C(=O)O)C(=O)O)C(=O)O` [compound 83] (Ac-LEGREKVRAK(Ac)I[Aib][Aib]EG[Nle]STWS[Aib]RKK([AEEA-AEEA-AEEA-γGlu-γGlu-γGlu-Stearoyl])-NH2): the Emax worked out at 92%.

Broadly, the EC50 is the concentration giving half of the maximal effect. Consider `CCCCCCCCCCCCCCCCCC(=O)N[C@@H](CCC(=O)N[C@@H](CCC(=O)N[C@@H](CCC(=O)NCCOCCOCC(=O)NCCOCCOCC(=O)NCCOCCOCC(=O)NCCCC[C@H](NC(=O)[C@H](CCCCNC(C)=O)NC(=O)[C@H](CCCCN)NC(=O)[C@H](CCCNC(=N)N)NC(=O)C(C)(C)NC(=O)[C@H](CO)NC(=O)[C@H](Cc1cccc2ccccc12)NC(=O)[C@@H](NC(=O)[C@H](CO)NC(=O)[C@H](CCCC)NC(=O)CNC(=O)[C@H](CCC(=O)O)NC(=O)C(C)(C)NC(=O)C(C)(C)NC(=O)[C@@H](NC(=O)[C@H](CCCCNC(C)=O)NC(=O)[C@H](C)NC(=O)[C@H](CCCNC(=N)N)NC(=O)[C@@H](NC(=O)[C@H](CCCCN)NC(=O)[C@H](CCC(=O)O)NC(=O)[C@H](CCCNC(=N)N)NC(=O)CNC(=O)[C@H](CCC(=O)O)NC(=O)[C@H](CC(C)C)NC(C)=O)C(C)C)[C@@H](C)CC)[C@@H](C)O)C(N)=O)C(=O)O)C(=O)O)C(=O)O` [compound 84] (Ac-LEGREKVRAK(Ac)I[Aib][Aib]EG[Nle]ST[1Nal]S[Aib]RKK(Ac)K([AEEA-AEEA-AEEA-γGlu-γGlu-γGlu-Stearoyl])-NH2), for which the EC50 turned out to be 0.09 nM and the Emax came to 76%.

With `CCCCCCCCCCCCCCCCCC(=O)N[C@@H](CCC(=O)N[C@@H](CCC(=O)N[C@@H](CCC(=O)NCCOCCOCC(=O)NCCOCCOCC(=O)NCCOCCOCC(=O)NCCCC[C@H](NC(=O)[C@H](CCCCNC(C)=O)NC(=O)[C@H](CCCCN)NC(=O)[C@H](CCCNC(=N)N)NC(=O)C(C)(C)NC(=O)[C@H](CO)NC(=O)[C@H](Cc1cccc2ccccc12)NC(=O)[C@@H](NC(=O)[C@H](CO)NC(=O)[C@H](CCCC)NC(=O)CNC(=O)[C@H](CCC(=O)O)NC(=O)C(C)(C)NC(=O)C(C)(C)NC(=O)[C@@H](NC(=O)[C@H](CCCCNC(C)=O)NC(=O)C(C)(C)NC(=O)[C@H](CCCNC(=N)N)NC(=O)[C@@H](NC(=O)[C@H](CCCCN)NC(=O)[C@H](CCC(=O)O)NC(=O)[C@H](CCCNC(=N)N)NC(=O)CNC(=O)[C@H](CCC(=O)O)NC(=O)[C@H](CC(C)C)NC(C)=O)C(C)C)[C@@H](C)CC)[C@@H](C)O)C(N)=O)C(=O)O)C(=O)O)C(=O)O` [compound 85] (Ac-LEGREKVR[Aib]K(Ac)I[Aib][Aib]EG[Nle]ST[1Nal]S[Aib]RKK(Ac)K([AEEA-AEEA-AEEA-γGlu-γGlu-γGlu-Stearoyl])-NH2), the maximum response (Emax) was found to be 75%.

As to `CCCCCCCCCCCCCCCCCC(=O)N[C@@H](CCC(=O)N[C@@H](CCC(=O)N[C@@H](CCC(=O)NCCOCCOCC(=O)NCCOCCOCC(=O)NCCOCCOCC(=O)NCCCC[C@H](NC(=O)[C@H](CC(C)C)NC(=O)[C@H](CCCCN)NC(=O)[C@H](CCCNC(=N)N)NC(=O)C(C)(C)NC(=O)[C@H](CO)NC(=O)[C@H](Cc1c[nH]c2ccccc12)NC(=O)[C@@H](NC(=O)[C@H](CO)NC(=O)[C@H](CCCC)NC(=O)CNC(=O)[C@H](CCC(=O)O)NC(=O)C(C)(C)NC(=O)C(C)(C)NC(=O)[C@@H](NC(=O)[C@H](CCCCNC(C)=O)NC(=O)[C@H](C)NC(=O)[C@H](CCCNC(=N)N)NC(=O)[C@@H](NC(=O)[C@H](CCCCN)NC(=O)[C@H](CCC(=O)O)NC(=O)[C@H](CCCNC(=N)N)NC(=O)CNC(=O)[C@H](CCC(=O)O)NC(=O)[C@H](CC(C)C)NC(C)=O)C(C)C)[C@@H](C)CC)[C@@H](C)O)C(N)=O)C(=O)O)C(=O)O)C(=O)O` [compound 86] (Ac-LEGREKVRAK(Ac)I[Aib][Aib]EG[Nle]STWS[Aib]RKLK([AEEA-AEEA-AEEA-γGlu-γGlu-γGlu-Stearoyl])-NH2), the EC50 came out at 0.69 nM and the Emax was determined as 79%.

Regarding `CCCCCCCCCCCCCCCCCC(=O)N[C@@H](CCC(=O)N[C@@H](CCC(=O)N[C@@H](CCC(=O)NCCOCCOCC(=O)NCCOCCOCC(=O)NCCOCCOCC(=O)NCCCC[C@H](NC(=O)[C@H](CC(C)C)NC(=O)[C@H](CCCCN)NC(=O)[C@H](CCCNC(=N)N)NC(=O)C(C)(C)NC(=O)[C@H](CO)NC(=O)[C@H](Cc1cccc2ccccc12)NC(=O)[C@@H](NC(=O)[C@H](CO)NC(=O)[C@H](CCCC)NC(=O)CNC(=O)[C@H](CCC(=O)O)NC(=O)C(C)(C)NC(=O)C(C)(C)NC(=O)[C@@H](NC(=O)[C@H](CCCCNC(C)=O)NC(=O)[C@H](C)NC(=O)[C@H](CCCNC(=N)N)NC(=O)[C@@H](NC(=O)[C@H](CCCCN)NC(=O)[C@H](CCC(=O)O)NC(=O)[C@H](CCCNC(=N)N)NC(=O)CNC(=O)[C@H](CCC(=O)O)NC(=O)[C@H](CC(C)C)NC(C)=O)C(C)C)[C@@H](C)CC)[C@@H](C)O)C(N)=O)C(=O)O)C(=O)O)C(=O)O` [compound 87] (Ac-LEGREKVRAK(Ac)I[Aib][Aib]EG[Nle]ST[1Nal]S[Aib]RKLK([AEEA-AEEA-AEEA-γGlu-γGlu-γGlu-Stearoyl])-NH2), the Emax stood at 71%.

Take `CCCCCCCCCCCCCCCCCC(=O)N[C@@H](CCC(=O)N[C@@H](CCC(=O)N[C@@H](CCC(=O)N[C@@H](CCC(=O)NCCOCCOCC(=O)NCCOCCOCC(=O)NCCOCCOCC(=O)NCCCC[C@H](NC(=O)[C@H](CCCCN)NC(=O)[C@H](CCCCN)NC(=O)[C@H](CCCNC(=N)N)NC(=O)C(C)(C)NC(=O)[C@H](CO)NC(=O)[C@H](Cc1c[nH]c2ccccc12)NC(=O)[C@@H](NC(=O)[C@H](CO)NC(=O)[C@H](CCCC)NC(=O)CNC(=O)[C@H](CCC(=O)O)NC(=O)C(C)(C)NC(=O)C(C)(C)NC(=O)[C@@H](NC(=O)[C@H](CCC(N)=O)NC(=O)[C@H](C)NC(=O)[C@H](CCCNC(=N)N)NC(=O)[C@@H](NC(=O)[C@H](CCCCN)NC(=O)[C@H](CCC(=O)O)NC(=O)[C@H](CCCNC(=N)N)NC(=O)CNC(=O)[C@H](CCC(=O)O)NC(=O)[C@H](CC(C)C)NC(C)=O)C(C)C)[C@@H](C)CC)[C@@H](C)O)C(N)=O)C(=O)O)C(=O)O)C(=O)O)C(=O)O` [compound 88] (Ac-LEGREKVRAQI[Aib][Aib]EG[Nle]STWS[Aib]RKKK([AEEA-AEEA-AEEA-γGlu-γGlu-γGlu-γGlu-Stearoyl])-NH2): the EC50 stood at 0.11 nM and the Emax is 74%.

With `CCCCCCCCCCCCCCCCCC(=O)N[C@@H](CCC(=O)N[C@@H](CCC(=O)N[C@@H](CCC(=O)N[C@@H](CCC(=O)NCCOCCOCC(=O)NCCOCCOCC(=O)NCCOCCOCC(=O)NCCCC[C@H](NC(=O)[C@H](CCCCN)NC(=O)[C@H](CCCCN)NC(=O)[C@H](CCCNC(=N)N)NC(=O)C(C)(C)NC(=O)[C@H](CO)NC(=O)[C@H](Cc1c[nH]c2ccccc12)NC(=O)[C@@H](NC(=O)[C@H](CO)NC(=O)[C@H](CCCC)NC(=O)CNC(=O)[C@H](CCC(=O)O)NC(=O)C(C)(C)NC(=O)C(C)(C)NC(=O)[C@@H](NC(=O)[C@H](CCCCNC(C)=O)NC(=O)[C@H](C)NC(=O)[C@H](CCCNC(=N)N)NC(=O)[C@@H](NC(=O)[C@H](CCCCN)NC(=O)[C@H](CCC(=O)O)NC(=O)[C@H](CCCNC(=N)N)NC(=O)CNC(=O)[C@H](CCC(=O)O)NC(=O)[C@H](CC(C)C)NC(C)=O)C(C)C)[C@@H](C)CC)[C@@H](C)O)C(N)=O)C(=O)O)C(=O)O)C(=O)O)C(=O)O` [compound 89] (Ac-LEGREKVRAK(Ac)I[Aib][Aib]EG[Nle]STWS[Aib]RKKK([AEEA-AEEA-AEEA-γGlu-γGlu-γGlu-γGlu-Stearoyl])-NH2), the EC50 was 0.03 nM and the Emax stood at 79%.
